Our source for the pest or weed control values is patent publication US8188273B2, “Insecticidal (1,3,5)-triazinyl phenyl hydrazones” (Dow AgroSciences, LLC., priority 2007, dated 2012).

In test [1] the test system is beet armyworm (Spodoptera exigua). Kind of test: Insecticidal test on treated lepidopteran diet, beet armyworm. It is filed as in vivo. Particulars: 120 h, second-instar larvae on treated diet, 8 wells, dose of 50 mg/cm^2 [sic] (2000 ppm, 50 μL), dead insects counted 5 days after treatment, read-out: AVG LAPHEG 50 (percent control, beet army worm). On the procedure:
(§1) The compounds identified in Table 1 were prepared according to the previous methods and were tested against beet armyworm and corn earworm as follows:
(§2) Insecticidal Test for Corn Earworm (Helicoverpa zea) and Beet Armyworm (Spodoptera exigua).
(§3) To prepare test solution, the test compound was formulated at 2000 ppm solution as 4 mg/2 mL of 9 acetone:1 tap water. 50 μL of the 2000 ppm (equivalent to 50 μg/cm^2 dose on diet surface area) test solution was pipetted upon the surface of 1 mL of lepidopteran diet (Southland Multi-Species Lepidopteran Diet) contained in each of eight wells per insect species (one well=1 replication). A second-instar corn earworm and beet armyworm was placed upon the treated diet in each well once the solvent had air-dried. Trays containing the treated diet and larvae were covered and then held in a growth chamber at 25° C., 50-55% RH, and 16 hr light:8 hr dark for 5 days. Observation were conducted 5 days after treatment and infestation. The number of dead insects of 8 per species per treatment was then determined and the results are given in Table 1 as a percent control at a dose of […].
(§4) Keys to the table: Mass spectral data were obtained using liquid chromatography mass spectroscopy (LC-MS). The masses are detected using electrospray ionization (ESI) and reported as Mol Ion (M+H, M−H); AVG LAPHEG 50 refers to activity against beet army worm (Spodoptera exigua) as defined above; AVG HELIZE 50 refers to activity against corn ear worm (Helicoverpa zea) as described above.

Test [2] concerns corn earworm (Helicoverpa zea). Kind of test: Insecticidal test on treated lepidopteran diet, corn earworm. It is filed as in vivo. Particulars: 120 h; second-instar larvae on treated diet, 8 wells; dose of 50 mg/cm^2 [sic] (2000 ppm, 50 μL); dead insects counted 5 days after treatment; read-out: AVG HELIZE 50 (percent control, corn ear worm). How it is done:
as §1, §2, §3, §4

Molecules are shown by their SMILES.

Regarding `CCNc1nc(N/N=C/c2ccc(OC(F)(F)F)cc2)nc(Nc2ccc(OC(F)(F)F)cc2)n1` [Compound 16], the pest or weed control at 2000 µg/mL in test [1] was 13%; in test [2] it was 0%.

For `CC1CN(c2nc(N/N=C/c3ccc(OC(F)(F)F)cc3)nc(Nc3ccc(F)c(C(F)(F)F)c3)n2)CC(C)O1` (stereo not shown) [Compound 46], the pest or weed control at 2000 µg/mL in test [1] and in test [2] was 100% in each case.

For the compound `Fc1cccc(/C=N/Nc2nc(NCc3ccc(Cl)nc3)nc(Nc3ccc(F)c(C(F)(F)F)c3)n2)c1` [Compound 73], the pest or weed control at 2000 µg/mL in test [1] and in test [2] was 100% throughout.

In the case of `FC(F)C(F)(F)Oc1ccc(Nc2nc(NCc3ccc(Cl)nc3)nc(N/N=C/c3ccc(Cl)cc3)n2)cc1` [Compound 87], the pest or weed control at 2000 µg/mL in test [1] and in test [2] was 100% each time.

Consider `Fc1ccc(Nc2nc(N/N=C/c3cccc(OC(F)(F)C(F)F)c3)nc(N3CCOCC3)n2)cc1F` [Compound 78], for which the pest or weed control at 2000 µg/mL was found to be 13% in test [1] and 88% in test [2].

For `COc1cccc(/C=N/Nc2nc(NCc3ccc(Cl)nc3)nc(Nc3ccc(F)c(C(F)(F)F)c3)n2)c1` [Compound 66], the pest or weed control at 2000 µg/mL in test [1] and in test [2] was 100% throughout.

In the case of `Fc1ccc(Nc2nc(NCc3ccc(Cl)nc3)nc(N/N=C/c3cccc(OC(F)(F)C(F)F)c3)n2)cc1C(F)(F)F` [Compound 51], the pest or weed control at 2000 µg/mL in test [1] and in test [2] was 100% each time.

On to `FC(F)C(F)(F)Oc1cccc(/C=N/Nc2nc(Nc3cccc(OC(F)(F)F)c3)nc(N3CCOCC3)n2)c1` [Compound 83], for which the pest or weed control at 2000 µg/mL in test [1] and in test [2] was 100% each time.

As for `Fc1ccc(Nc2nc(N/N=C/c3ccc(OC(F)(F)F)cc3)nc(N3CCOCC3)n2)cc1C(F)(F)F` [Compound 54], the pest or weed control at 2000 µg/mL in test [1] and in test [2] was 100% in each case.

Regarding `FC(F)(F)Oc1ccc(Nc2nc(N/N=C/c3ccccc3Br)nc(N3CCOCC3)n2)cc1` [Compound 43], the pest or weed control at 2000 µg/mL stood at 13% in test [1] and 0% in test [2].

As for `FC(F)(F)COc1nc(N/N=C/c2ccccc2OC(F)(F)F)nc(Nc2ccc(OC(F)(F)F)cc2)n1` [Compound 36], the pest or weed control at 2000 µg/mL in test [1] and in test [2] was 100% in each case.

Take `Fc1ccc(Nc2nc(N/N=C/c3ccc(OC(F)(F)C(F)F)cc3)nc(N3CCOCC3)n2)cc1C(F)(F)F` [Compound 52]: the pest or weed control at 2000 µg/mL in test [1] and in test [2] was 100% throughout.

`Fc1ccc(Nc2nc(NCCc3cccnc3)nc(N/N=C/c3ccc(OC(F)(F)F)cc3)n2)cc1C(F)(F)F` [Compound 80]: the pest or weed control at 2000 µg/mL in test [1] and in test [2] was 100% throughout.

On to `FC(F)(F)Oc1ccc(Nc2nc(N/N=C/c3ccc(Cl)cc3Cl)nc(N3CCOCC3)n2)cc1` [Compound 40], for which the pest or weed control at 2000 µg/mL in test [1] stood at 25%; in test [2], 0%.

With `FC(F)(F)Oc1ccc(Nc2nc(N/N=C/c3ccccc3C(F)(F)F)nc(N3CCOCC3)n2)cc1` [Compound 41], the pest or weed control at 2000 µg/mL stood at 13% in test [1] and 0% in test [2].

For the compound `CCOc1nc(N/N=C/c2cccc(C(F)(F)F)c2)nc(Nc2ccc(OC(F)(F)F)cc2)n1` [Compound 10], the pest or weed control at 2000 µg/mL in test [1] came to 13%; in test [2] it was 0%.

For the compound `CC1CN(c2nc(N/N=C/c3ccc(OC(F)(F)C(F)F)cc3)nc(Nc3ccc(F)c(C(F)(F)F)c3)n2)CC(C)O1` (stereo not shown) [Compound 49], the pest or weed control at 2000 µg/mL in test [1] and in test [2] was 100% throughout.

With `Fc1ccc(Nc2nc(NCc3ccc(Cl)nc3)nc(N/N=C/c3cccc(OC(F)(F)F)c3)n2)cc1C(F)(F)F` [Compound 60], the pest or weed control at 2000 µg/mL in test [1] and in test [2] was 100% in each case.

Consider `CCNc1nc(N/N=C/c2ccc(F)cc2)nc(Nc2ccc(OC(F)(F)F)cc2)n1` [Compound 18], for which the pest or weed control at 2000 µg/mL in test [1] is 75%; in test [2] it was 38%.

As for `Fc1ccc(Nc2ncnc(N/N=C/c3ccc(OC(F)(F)F)cc3)n2)cc1C(F)(F)F` [Compound 3, (4-Fluoro-3-trifluoromethylphenyl)-(4-{N′-[1-(4-trifluoromethoxyphenyl)-methylidene]-hydrazino}-[1,3,5]triazin-2-yl)-amine], the pest or weed control at 2000 µg/mL in test [1] and in test [2] was 100% each time.

Regarding `CCOc1nc(N/N=C/c2ccc(OC(F)(F)F)cc2)nc(Nc2cccc(C(F)(F)F)c2)n1` [Compound 12], the pest or weed control at 2000 µg/mL in test [1] and in test [2] was 100% each time.

Turning to `Fc1ccc(Nc2nc(NCc3ccc(Cl)nc3)nc(N/N=C/c3ccc(OC(F)(F)C(F)F)cc3)n2)cc1C(F)(F)F` [Compound 63], the pest or weed control at 2000 µg/mL in test [1] and in test [2] was 100% throughout.

`FC(F)C(F)(F)Oc1cccc(/C=N/Nc2nc(Nc3ccc(OC(F)(F)F)cc3)nc(OCC(F)(F)F)n2)c1` [Compound 28]: the pest or weed control at 2000 µg/mL in test [1] and in test [2] was 100% in each case.

Consider `CCOc1nc(N/N=C/c2cccc(C(F)(F)F)c2)nc(Nc2cccc(C(F)(F)F)c2)n1` [Compound 13], for which the pest or weed control at 2000 µg/mL stood at 0% in test [1] and 75% in test [2].

On to `FC(F)C(F)(F)Oc1ccc(Nc2nc(NCc3ccc(Cl)nc3)nc(N/N=C/c3ccc(Cl)c(Cl)c3)n2)cc1` [Compound 94], for which the pest or weed control at 2000 µg/mL in test [1] and in test [2] was 100% in each case.

For the compound `Fc1ccc(Nc2nc(NCc3ccc(Cl)nc3)nc(N/N=C/c3ccccc3Cl)n2)cc1C(F)(F)F` [Compound 72], the pest or weed control at 2000 µg/mL was 0% in test [1] and 25% in test [2].

Regarding `FC(F)C(F)(F)Oc1cccc(Nc2nc(NCc3ccc(Cl)nc3)nc(N/N=C/c3ccc(C(F)(F)F)cc3)n2)c1` [Compound 85], the pest or weed control at 2000 µg/mL in test [1] and in test [2] was 100% each time.

For the compound `FC(F)C(F)(F)Oc1ccc(Nc2ncnc(N/N=C/c3cccc(C(F)(F)F)c3)n2)cc1` [Compound 104], the pest or weed control at 2000 µg/mL in test [1] was found to be 50%; in test [2] it was 88%.

`FC(F)(F)Oc1ccc(/C=N/Nc2nc(NCCN3CCOCC3)nc(Nc3cccc(C(F)(F)F)c3)n2)cc1` [Compound 50]: the pest or weed control at 2000 µg/mL in test [1] and in test [2] was 100% throughout.

With `FC(F)C(F)(F)Oc1ccc(Nc2nc(NCc3ccc(Cl)nc3)nc(N/N=C/c3ccc(C(F)(F)F)cc3)n2)cc1` [Compound 93], the pest or weed control at 2000 µg/mL in test [1] and in test [2] was 100% throughout.

For the compound `Cc1cnc(CNc2nc(N/N=C/c3cccc(OC(F)(F)C(F)F)c3)nc(Nc3ccc(F)c(C(F)(F)F)c3)n2)cn1` [Compound 56], the results for the pest or weed control at 2000 µg/mL in test [1] and in test [2] were 100% and 63%, respectively.

As to `CCOc1nc(N/N=C/c2ccc(OC)cc2)nc(Nc2cccc(C(F)(F)F)c2)n1` [Compound 14], the pest or weed control at 2000 µg/mL is 25% in test [1] and 13% in test [2].
